Measured values from ChEMBL document CHEMBL2439992, “Fused 3-Hydroxy-3-trifluoromethylpyrazoles Inhibit Mutant Huntingtin Toxicity” (ACS Med Chem Lett, 2013).
≈ marks a conversion by molar mass, not a printed value. Calls of active or inactive are those of the source. No cut-off for these calls is given here.

Target: T1, Cytochrome P450 3A4 (Homo sapiens, UniProt P08684)
T1 sequence (P08684 whole entry): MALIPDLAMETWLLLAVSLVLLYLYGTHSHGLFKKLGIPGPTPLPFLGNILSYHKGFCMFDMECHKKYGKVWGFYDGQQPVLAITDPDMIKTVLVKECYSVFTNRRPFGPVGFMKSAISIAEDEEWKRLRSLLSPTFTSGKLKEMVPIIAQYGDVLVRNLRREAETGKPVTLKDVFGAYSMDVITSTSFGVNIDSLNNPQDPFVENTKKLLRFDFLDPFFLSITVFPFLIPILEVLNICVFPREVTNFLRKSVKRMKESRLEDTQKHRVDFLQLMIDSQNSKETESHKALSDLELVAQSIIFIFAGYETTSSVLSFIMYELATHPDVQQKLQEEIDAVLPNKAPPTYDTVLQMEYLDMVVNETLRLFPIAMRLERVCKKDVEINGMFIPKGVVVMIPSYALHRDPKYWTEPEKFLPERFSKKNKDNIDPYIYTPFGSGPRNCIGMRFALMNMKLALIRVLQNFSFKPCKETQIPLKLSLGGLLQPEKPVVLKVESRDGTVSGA
Assay: Inhibition of CYP3A4 (unknown origin) using nifedipine as substrate
Type: ADME
Conditions: not given
With `Nc1nc(C(=O)N2N=C3CCCC[C@@H]3[C@@]2(O)C(F)(F)F)cs1` (racemic) the INH was greater than 30 µM.

Target: T2, Cytochrome P450 1A2 (Homo sapiens, UniProt P05177)
T2 sequence (P05177 whole entry): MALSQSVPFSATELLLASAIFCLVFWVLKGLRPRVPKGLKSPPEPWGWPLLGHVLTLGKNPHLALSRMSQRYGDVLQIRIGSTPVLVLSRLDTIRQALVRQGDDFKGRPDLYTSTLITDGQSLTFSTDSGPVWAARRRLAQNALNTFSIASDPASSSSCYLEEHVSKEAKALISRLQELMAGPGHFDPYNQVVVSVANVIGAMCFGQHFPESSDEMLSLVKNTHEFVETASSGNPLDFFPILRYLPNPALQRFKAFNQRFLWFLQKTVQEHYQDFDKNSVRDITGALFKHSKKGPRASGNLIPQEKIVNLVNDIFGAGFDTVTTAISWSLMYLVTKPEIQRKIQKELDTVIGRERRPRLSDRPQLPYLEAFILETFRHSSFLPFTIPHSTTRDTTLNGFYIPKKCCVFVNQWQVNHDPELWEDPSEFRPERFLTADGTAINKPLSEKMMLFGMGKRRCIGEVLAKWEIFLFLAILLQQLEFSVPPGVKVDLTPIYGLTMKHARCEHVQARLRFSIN
Assay: Inhibition of CYP1A2 (unknown origin)
Type: ADME
Conditions: not given
For `Nc1nc(C(=O)N2N=C3CCCC[C@@H]3[C@@]2(O)C(F)(F)F)cs1` (racemic), the INH was greater than 30 µM.

Target: Cytochrome P450 2C19 (Homo sapiens, UniProt P33261)
Sequence (P33261 whole entry): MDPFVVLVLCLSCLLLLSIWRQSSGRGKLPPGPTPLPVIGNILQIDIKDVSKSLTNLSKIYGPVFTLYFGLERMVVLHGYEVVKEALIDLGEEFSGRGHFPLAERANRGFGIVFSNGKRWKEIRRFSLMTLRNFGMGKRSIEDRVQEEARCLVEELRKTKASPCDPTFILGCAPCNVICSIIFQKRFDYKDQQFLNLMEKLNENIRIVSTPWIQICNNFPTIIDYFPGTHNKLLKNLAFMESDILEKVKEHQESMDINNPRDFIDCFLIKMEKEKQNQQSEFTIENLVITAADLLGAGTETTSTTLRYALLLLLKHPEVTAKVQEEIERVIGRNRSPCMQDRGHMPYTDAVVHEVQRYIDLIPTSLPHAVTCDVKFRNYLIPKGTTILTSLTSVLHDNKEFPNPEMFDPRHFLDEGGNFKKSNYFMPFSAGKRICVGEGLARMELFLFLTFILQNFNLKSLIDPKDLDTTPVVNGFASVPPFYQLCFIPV
Assay: Inhibition of CYP2C19 (unknown origin)
Type: ADME
Conditions: not given
For `Nc1nc(C(=O)N2N=C3CCCC[C@@H]3[C@@]2(O)C(F)(F)F)cs1` (racemic), the INH was 24.4 µM.

Tested on: Mus musculus
Assay: Toxicity in R6/2 transgenic mouse assessed as mortality at 1 to 30 mg/kg, po qd
Type: organism-based
Set-up: dose 1-30 mg/kg, route oral
Conditions: in vivo
With `Nc1nc(C(=O)N2N=C3CCCC[C@@H]3[C@@]2(O)C(F)(F)F)cs1` (racemic) the Activity was “Non-toxic”.

Tested on: PC-12
Assay: Cytoprotective activity in rat PC12 cells after 72 hrs by LDH release assay
Type: ADME, cell-based
Conditions: pc-12, 72 h
With `Nc1nc(C(=O)N2N=C3CCCC[C@@H]3[C@@]2(O)C(F)(F)F)cs1` (racemic) the Activity was “Non-toxic”.

Target: Cytochrome P450 2D6 (Homo sapiens, UniProt P10635)
Sequence (P10635 whole entry): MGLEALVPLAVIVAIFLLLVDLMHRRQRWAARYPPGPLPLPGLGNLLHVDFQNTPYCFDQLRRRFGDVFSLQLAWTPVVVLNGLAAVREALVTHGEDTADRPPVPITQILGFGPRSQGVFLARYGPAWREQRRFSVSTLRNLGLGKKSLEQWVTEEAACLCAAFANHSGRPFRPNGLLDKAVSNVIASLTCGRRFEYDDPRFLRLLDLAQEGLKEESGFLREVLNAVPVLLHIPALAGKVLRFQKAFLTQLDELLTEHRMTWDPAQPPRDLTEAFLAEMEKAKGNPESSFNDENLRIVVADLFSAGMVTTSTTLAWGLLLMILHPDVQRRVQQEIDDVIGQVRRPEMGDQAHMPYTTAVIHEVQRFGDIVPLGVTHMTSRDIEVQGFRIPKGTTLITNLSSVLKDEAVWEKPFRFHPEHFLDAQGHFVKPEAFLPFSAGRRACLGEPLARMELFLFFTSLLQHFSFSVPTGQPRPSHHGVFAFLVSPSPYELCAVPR
Assay: Inhibition of CYP2D6 (unknown origin)
Type: ADME
Conditions: not given
`Nc1nc(C(=O)N2N=C3CCCC[C@@H]3[C@@]2(O)C(F)(F)F)cs1` (racemic) gave an INH greater than 30 µM.

Target: Huntingtin (Rattus norvegicus) (UniProt P51111)
Sequence (P51111 whole entry): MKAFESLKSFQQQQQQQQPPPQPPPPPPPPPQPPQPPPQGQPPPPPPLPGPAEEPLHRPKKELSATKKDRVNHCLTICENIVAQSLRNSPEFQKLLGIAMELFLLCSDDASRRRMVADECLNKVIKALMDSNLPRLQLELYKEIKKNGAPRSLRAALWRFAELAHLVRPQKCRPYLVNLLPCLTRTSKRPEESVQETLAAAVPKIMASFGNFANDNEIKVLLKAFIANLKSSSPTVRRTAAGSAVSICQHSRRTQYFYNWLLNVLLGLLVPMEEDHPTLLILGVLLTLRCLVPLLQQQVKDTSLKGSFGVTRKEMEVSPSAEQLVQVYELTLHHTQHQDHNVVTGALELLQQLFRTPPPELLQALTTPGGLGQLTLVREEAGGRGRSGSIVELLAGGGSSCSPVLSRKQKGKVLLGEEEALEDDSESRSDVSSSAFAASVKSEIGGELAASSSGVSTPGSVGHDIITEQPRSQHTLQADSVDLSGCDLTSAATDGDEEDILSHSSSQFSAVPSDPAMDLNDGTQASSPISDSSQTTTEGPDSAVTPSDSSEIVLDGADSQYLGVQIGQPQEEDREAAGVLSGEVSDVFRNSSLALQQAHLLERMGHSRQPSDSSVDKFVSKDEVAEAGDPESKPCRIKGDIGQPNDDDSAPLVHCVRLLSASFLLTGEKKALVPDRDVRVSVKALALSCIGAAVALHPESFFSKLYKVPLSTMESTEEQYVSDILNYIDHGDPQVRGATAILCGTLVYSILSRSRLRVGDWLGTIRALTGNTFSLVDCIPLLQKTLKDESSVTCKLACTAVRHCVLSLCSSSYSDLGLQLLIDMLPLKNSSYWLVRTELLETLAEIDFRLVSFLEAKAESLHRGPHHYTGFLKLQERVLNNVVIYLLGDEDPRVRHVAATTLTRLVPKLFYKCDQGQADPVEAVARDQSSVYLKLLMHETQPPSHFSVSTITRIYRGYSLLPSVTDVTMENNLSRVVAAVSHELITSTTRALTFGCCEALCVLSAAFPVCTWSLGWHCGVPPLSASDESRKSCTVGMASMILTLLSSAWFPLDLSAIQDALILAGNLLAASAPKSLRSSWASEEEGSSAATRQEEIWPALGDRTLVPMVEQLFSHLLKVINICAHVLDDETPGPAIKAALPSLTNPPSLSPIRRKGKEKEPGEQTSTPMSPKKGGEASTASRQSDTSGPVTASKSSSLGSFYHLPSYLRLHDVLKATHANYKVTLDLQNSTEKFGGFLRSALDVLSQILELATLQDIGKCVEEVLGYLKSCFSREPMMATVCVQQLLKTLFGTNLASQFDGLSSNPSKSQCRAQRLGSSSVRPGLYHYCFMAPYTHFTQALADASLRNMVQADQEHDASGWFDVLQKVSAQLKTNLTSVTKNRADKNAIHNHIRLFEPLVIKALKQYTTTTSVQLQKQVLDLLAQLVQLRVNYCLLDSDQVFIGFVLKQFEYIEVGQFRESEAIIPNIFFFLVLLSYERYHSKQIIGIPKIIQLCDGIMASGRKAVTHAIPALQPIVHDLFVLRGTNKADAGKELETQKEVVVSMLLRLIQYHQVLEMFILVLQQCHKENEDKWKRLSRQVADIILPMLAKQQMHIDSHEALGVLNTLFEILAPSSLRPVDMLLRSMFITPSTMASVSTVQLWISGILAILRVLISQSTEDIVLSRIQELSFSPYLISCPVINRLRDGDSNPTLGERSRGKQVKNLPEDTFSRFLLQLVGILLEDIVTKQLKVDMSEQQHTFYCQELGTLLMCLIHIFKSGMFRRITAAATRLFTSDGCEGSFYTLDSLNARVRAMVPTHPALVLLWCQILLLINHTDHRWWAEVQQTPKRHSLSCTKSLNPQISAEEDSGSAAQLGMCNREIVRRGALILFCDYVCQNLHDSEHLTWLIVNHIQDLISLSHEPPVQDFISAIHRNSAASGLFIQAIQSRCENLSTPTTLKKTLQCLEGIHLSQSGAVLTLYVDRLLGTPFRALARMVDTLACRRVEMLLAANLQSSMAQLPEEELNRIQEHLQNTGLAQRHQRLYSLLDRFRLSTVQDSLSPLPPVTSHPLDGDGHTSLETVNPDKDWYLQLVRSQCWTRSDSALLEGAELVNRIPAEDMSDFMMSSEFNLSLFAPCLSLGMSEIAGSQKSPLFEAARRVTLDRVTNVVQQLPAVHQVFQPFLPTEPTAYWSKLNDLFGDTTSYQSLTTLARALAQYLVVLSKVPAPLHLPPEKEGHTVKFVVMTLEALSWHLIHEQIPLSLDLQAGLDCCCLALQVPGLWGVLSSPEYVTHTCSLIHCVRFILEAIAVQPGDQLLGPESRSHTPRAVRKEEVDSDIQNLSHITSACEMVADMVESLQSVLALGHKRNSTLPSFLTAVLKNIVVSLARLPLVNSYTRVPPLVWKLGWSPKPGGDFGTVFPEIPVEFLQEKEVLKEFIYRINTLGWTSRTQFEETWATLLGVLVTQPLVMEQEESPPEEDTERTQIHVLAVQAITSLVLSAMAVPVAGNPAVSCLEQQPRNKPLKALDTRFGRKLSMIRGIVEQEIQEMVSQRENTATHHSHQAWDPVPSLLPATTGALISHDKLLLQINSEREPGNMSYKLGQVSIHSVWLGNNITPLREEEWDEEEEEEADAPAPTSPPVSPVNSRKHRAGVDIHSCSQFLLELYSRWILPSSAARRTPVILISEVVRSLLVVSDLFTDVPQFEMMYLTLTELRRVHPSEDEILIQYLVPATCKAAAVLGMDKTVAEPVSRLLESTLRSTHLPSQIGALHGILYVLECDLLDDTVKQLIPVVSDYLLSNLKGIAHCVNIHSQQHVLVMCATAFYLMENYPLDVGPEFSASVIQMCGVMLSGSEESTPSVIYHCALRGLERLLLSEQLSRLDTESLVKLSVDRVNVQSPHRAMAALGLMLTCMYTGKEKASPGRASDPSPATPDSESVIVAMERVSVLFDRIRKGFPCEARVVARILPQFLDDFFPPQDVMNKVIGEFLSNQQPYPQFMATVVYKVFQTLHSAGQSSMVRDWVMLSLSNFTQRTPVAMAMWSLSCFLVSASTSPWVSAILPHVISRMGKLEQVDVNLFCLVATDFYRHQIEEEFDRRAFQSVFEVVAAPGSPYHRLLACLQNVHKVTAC
Assay: Inhibition of wild type huntingtin 171-18Q-mediated cell death in Sprague-Dawley rat striatal neurons at 1 to 30 uM by NeuN-positive cell counting assay
Conditions: not given
In the case of `Cn1cnc(S(=O)(=O)N2N=C3CCCC[C@@H]3[C@@]2(O)C(F)(F)F)c1` (racemic), the inhibition is reported as “Active”. In the case of `Nc1nc(C(=O)N2N=C3CCCC[C@@H]3[C@@]2(O)C(F)(F)F)cs1` (racemic), the inhibition is reported as “Active”.

Target: T1, Cytochrome P450 3A4
Assay: Inhibition of CYP3A4 (unknown origin) using testosterone as substrate
Type: ADME
Conditions: not given
With `Nc1nc(C(=O)N2N=C3CCCC[C@@H]3[C@@]2(O)C(F)(F)F)cs1` (racemic) the INH was greater than 30 µM.

Tested on: not listed separately
Assay: Intrinsic clearance in human liver microsomes at 1 uM in presence of NADPH
Type: ADME, Microsome
Conditions: read-out: CLH
With `Cn1cnc(S(=O)(=O)N2N=C3CCCC[C@@H]3[C@@]2(O)C(F)(F)F)c1` (racemic) the microsomal CLint at 1 µM was 37.6 µL/min/mg. Work on `Nc1nc(C(=O)N2N=C3CCCC[C@@H]3[C@@]2(O)C(F)(F)F)cs1` (racemic) yielded a microsomal CLint at 1 µM of 13.6 µL/min/mg.

Tested on: not listed separately
Assay: Permeability of the compound from apical to basolateral side of MDCK cells expressing MDR1 after 120 mins
Type: ADME, cell-based, Canis lupus familiaris
Conditions: dog, read-out: permeability
Work on `Cn1cnc(S(=O)(=O)N2N=C3CCCC[C@@H]3[C@@]2(O)C(F)(F)F)c1` (racemic) yielded a Papp A→B at 2 h of 12.8 ×10⁻⁶ cm/s. Compound `Nc1nc(C(=O)N2N=C3CCCC[C@@H]3[C@@]2(O)C(F)(F)F)cs1` (racemic) has a Papp A→B at 2 h of 31 ×10⁻⁶ cm/s.

Tested on: HEK293
Assay: Inhibition of full-length huntingtin Q138 mutant (unknown origin) expressed in human T-RexTM-293 cells co-expressing CRE-Luc assessed as decrease of CREB-mediated transcription after 72 hrs by luciferase reporter gene based luminescence assay relative to control
Type: cell-based
Conditions: not given
Compound `Cn1cnc(S(=O)(=O)N2N=C3CCCC[C@@H]3[C@@]2(O)C(F)(F)F)c1` (racemic) has an Emax of 41%. `Nc1nc(C(=O)N2N=C3CCCC[C@@H]3[C@@]2(O)C(F)(F)F)cs1` (racemic) gave an Emax of 44%.

Tested on: not listed separately
Assay: Cytotoxicity in Sprague-Dawley rat striatal neurons
Type: cell-based
Conditions: neuron
For `Cn1cnc(S(=O)(=O)N2N=C3CCCC[C@@H]3[C@@]2(O)C(F)(F)F)c1` (racemic), the Activity was “Non-toxic”. In the case of `Nc1nc(C(=O)N2N=C3CCCC[C@@H]3[C@@]2(O)C(F)(F)F)cs1` (racemic), the Activity is reported as “Non-toxic”.

Tested on: Mus musculus
Assay: Ex vivo antihuntington's disease activity in R6/2 transgenic mouse assessed as decrease of cerebral ventricles size at 3 to 30 mg/kg, po qd measured after 8 weeks by MRI analysis
Type: functional, organism-based
Conditions: not given
In the case of `Nc1nc(C(=O)N2N=C3CCCC[C@@H]3[C@@]2(O)C(F)(F)F)cs1` (racemic), the Activity is reported as “Active”.

Tested on: Mus musculus
Assay: Antihuntington's disease activity in R6/2 transgenic mouse assessed as decrease of cerebral ventricles size at 3 to 30 mg/kg, po qd measured after 8 weeks
Type: functional, organism-based
Conditions: not given
In the case of `Nc1nc(C(=O)N2N=C3CCCC[C@@H]3[C@@]2(O)C(F)(F)F)cs1` (racemic), the Activity is reported as “Active”.

Tested on: MDCK
Assay: Efflux ratio of permeability […] in MDCK cells expressing MDR1 after 120 mins
Type: ADME, cell-based, Canis lupus familiaris
Conditions: dog, 2 h
With `Cn1cnc(S(=O)(=O)N2N=C3CCCC[C@@H]3[C@@]2(O)C(F)(F)F)c1` (racemic) the Ratio was 0.9. `Nc1nc(C(=O)N2N=C3CCCC[C@@H]3[C@@]2(O)C(F)(F)F)cs1` (racemic) gave a Ratio of 1.1.

Tested on: not listed separately
Assay: Inhibition of full-length huntingtin Q138 mutant (unknown origin) expressed in human T-RexTM-293 cells co-expressing CRE-Luc assessed as decrease of CREB-mediated transcription after 72 hrs by luciferase reporter gene based luminescence assay
Type: cell-based
Conditions: HEK293, 72 h
`Cn1cnc(S(=O)(=O)N2N=C3CCCC[C@@H]3[C@@]2(O)C(F)(F)F)c1` (racemic) gave an EC50 of 1700 nM. `Nc1nc(C(=O)N2N=C3CCCC[C@@H]3[C@@]2(O)C(F)(F)F)cs1` (racemic) gave an EC50 of 1800 nM.

Tested on: not listed separately
Assay: Intrinsic clearance in mouse liver microsomes at 1 uM in presence of NADPH
Type: ADME, Microsome
Conditions: read-out: CLH
`Cn1cnc(S(=O)(=O)N2N=C3CCCC[C@@H]3[C@@]2(O)C(F)(F)F)c1` (racemic) showed a microsomal CLint at 1 µM of 28.3 µL/min/mg. With `Nc1nc(C(=O)N2N=C3CCCC[C@@H]3[C@@]2(O)C(F)(F)F)cs1` (racemic) the microsomal CLint at 1 µM was 27.6 µL/min/mg.

Tested on: Salmonella typhimurium
Assay: Genotoxicity in Salmonella typhimurium by Ames test
Type: toxicity, organism-based
Conditions: salmonella enterica subsp. enterica serovar typhimurium
In the case of `Nc1nc(C(=O)N2N=C3CCCC[C@@H]3[C@@]2(O)C(F)(F)F)cs1` (racemic), the Activity is reported as “Non-toxic”.

Tested on: not listed separately
Assay: Stability of the compound at pH 3 to 7.4 assessed as dehydration
Type: physicochemical
Conditions: buffer
For `Cn1cnc(S(=O)(=O)N2N=C3CCCC[C@@H]3[C@@]2(O)C(F)(F)F)c1` (racemic), the Stability was “Stable”. In the case of `Nc1nc(C(=O)N2N=C3CCCC[C@@H]3[C@@]2(O)C(F)(F)F)cs1` (racemic), the Stability is reported as “Stable”.

Tested on: Mus musculus
Assay: Toxicity in R6/2 transgenic mouse assessed as motor impairment at 1 to 30 mg/kg, po qd
Type: organism-based
Set-up: dose 1-30 mg/kg, route oral
Conditions: in vivo
In the case of `Nc1nc(C(=O)N2N=C3CCCC[C@@H]3[C@@]2(O)C(F)(F)F)cs1` (racemic), the Activity is reported as “Non-toxic”.

Tested on: not listed separately
Assay: Ratio of drug level in brain to plasma in CD1 mouse at 5 mg/kg, po and iv
Type: ADME, organism-based
Set-up: dose 5 mg/kg, route oral
Conditions: read-out: BPR
With `Nc1nc(C(=O)N2N=C3CCCC[C@@H]3[C@@]2(O)C(F)(F)F)cs1` (racemic) the Kp was 0.34.

Tested on: Mus musculus
Assay: Antihuntington's disease activity in R6/2 transgenic mouse assessed as prevention of ventricular volume enlargment at 3 to 30 mg/kg, po qd measured after 8 weeks
Type: functional, organism-based
Conditions: not given
In the case of `Nc1nc(C(=O)N2N=C3CCCC[C@@H]3[C@@]2(O)C(F)(F)F)cs1` (racemic), the Activity is reported as “Active”.

Tested on: not listed separately
Assay: Kinetic solubility of the compound at pH 7.4
Type: physicochemical
Conditions: buffer, read-out: Kinetic_solubility
`Cn1cnc(S(=O)(=O)N2N=C3CCCC[C@@H]3[C@@]2(O)C(F)(F)F)c1` (racemic) gave a solubility kinetic of 156 µM (≈ 55 µg/mL). With `Nc1nc(C(=O)N2N=C3CCCC[C@@H]3[C@@]2(O)C(F)(F)F)cs1` (racemic) the solubility kinetic was 96 µM (≈ 32.1 µg/mL).

Species on record: Rattus norvegicus
Assay: Inhibition of huntingtin 171-82Q mutant-mediated cell death in Sprague-Dawley rat striatal neurons at 10 to 30 uM by NeuN-positive cell counting assay
Conditions: not given
In the case of `Cn1cnc(S(=O)(=O)N2N=C3CCCC[C@@H]3[C@@]2(O)C(F)(F)F)c1` (racemic), the inhibition is reported as “Active”. In the case of `Nc1nc(C(=O)N2N=C3CCCC[C@@H]3[C@@]2(O)C(F)(F)F)cs1` (racemic), the inhibition is reported as “Active”.

Target: Voltage-gated inwardly rectifying potassium channel KCNH2 (Homo sapiens, UniProt Q12809)
Assay: Inhibition of human ERG up to 100 uM
Conditions: not given
For `Nc1nc(C(=O)N2N=C3CCCC[C@@H]3[C@@]2(O)C(F)(F)F)cs1` (racemic), the “inhibition (INH)” value was “Not Active”.

Target: Cytochrome P450 2C9 (Homo sapiens, UniProt P11712)
Sequence (P11712 whole entry): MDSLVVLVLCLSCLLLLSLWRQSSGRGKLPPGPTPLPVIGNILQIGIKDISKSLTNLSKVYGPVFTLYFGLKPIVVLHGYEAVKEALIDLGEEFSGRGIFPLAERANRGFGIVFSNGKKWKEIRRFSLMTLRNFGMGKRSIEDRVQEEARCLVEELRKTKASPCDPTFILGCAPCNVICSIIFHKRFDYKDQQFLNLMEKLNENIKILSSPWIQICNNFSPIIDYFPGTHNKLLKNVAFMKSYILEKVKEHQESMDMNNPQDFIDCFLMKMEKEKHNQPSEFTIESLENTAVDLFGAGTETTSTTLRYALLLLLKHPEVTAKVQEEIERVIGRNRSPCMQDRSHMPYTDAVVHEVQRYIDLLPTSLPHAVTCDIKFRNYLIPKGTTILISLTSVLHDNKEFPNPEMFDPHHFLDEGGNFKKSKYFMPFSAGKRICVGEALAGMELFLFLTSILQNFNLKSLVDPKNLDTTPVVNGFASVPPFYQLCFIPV
Assay: Inhibition of CYP2C9 (unknown origin)
Type: ADME
Conditions: not given
`Nc1nc(C(=O)N2N=C3CCCC[C@@H]3[C@@]2(O)C(F)(F)F)cs1` (racemic) showed an INH greater than 30 µM.

Tested on: PC-12
Assay: Inhibition of GFP tagged-exon-1 fragment of huntingtin 74Q mutant (unknown origin) expressed in rat PC12 cells assessed as protection against doxycycline-induced cell death after 72 hrs by LDH release assay
Type: cell-based
Conditions: Homo sapiens
For `Nc1nc(C(=O)N2N=C3CCCC[C@@H]3[C@@]2(O)C(F)(F)F)cs1` (racemic), the inhibition was “Active”.

Tested on: Mus musculus
Assay: Antihuntington's disease activity in R6/2 transgenic mouse assessed as decrease in body weight at 10 to 30 mg/kg, po qd
Type: functional, organism-based
Conditions: not given
For `Nc1nc(C(=O)N2N=C3CCCC[C@@H]3[C@@]2(O)C(F)(F)F)cs1` (racemic), the Activity was “Active”.
